Measurements: patent US20110230472A1, “RING-FUSED AZOLE DERIVATIVE HAVING PI3K-INHIBITING ACTIVITY” (Shionogi & Co., Ltd., priority 2008, published 2011)

How the values were obtained:
PI-3 kinase γ [1] = molecular target: T1, PI-3 kinase γ (Homo sapiens, UniProt P48736); assay: PI3Kγ inhibitory activity, PI3-kinase HTRF assay (inhibition ratio); type: biochemical; conditions: 0.5 h; for inhibition at 50 µM: compound at 50 μM
In short: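 PI3Kγ preincubated 10 min with compound and PIP2 substrate (MgCl2, DTT), then ATP added for 30 min at room temperature. PIP3 detected by HTRF (665/620 nm ratio) after 18 h. Inhibition ratio at 50 or 10 μmol/L, normalised to no-compound and no-enzyme controls.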

[2] = tested on: AKT phosphorylation in human monocyte-like cell line THP-1; assay: AKT phosphorylation inhibitory activity in MCP-1-stimulated THP-1 cells (ELISA); type: cell-based; conditions: 1 μmol/L solution of each compound, MCP-1 stimulation, read-out: AKT phosphorylation inhibition ratio
Procedure: (1) The AKT phosphorylation inhibitory activity of a compound was evaluated according to the following procedure. (2) Human monocyte-like cell line THP-1 was washed with RPMI-1640 media, incubated in the presence of 5% CO2 at 37° C. for 3 hours, washed with Hank's balanced salt solution (HBSS), adjusted to a cell concentration of 6.6×10^6/mL, and then used in an experiment. (3) 30 μL of the cell suspension and 60 μL of each compound solution containing 0.2% DMSO/HBSS were mixed and then preincubated at 37° C. for 5 minutes. 30 μL of HBSS containing 4 μg/mL of MCP-1 was added thereto and then incubated for 30 seconds at 37° C. (4) 30 μl of a cell lysate (20 mmol/L Tris-HCl (pH 7.5), 150 mmol/L NaCl, 1 mmol/L Na2EDTA, 1 mmol/L EGTA, 1% Triton, 2.5 mmol/L sodium pyrophosphate, 1 mmol/L β-glycerophosphate, 1 mmol/L Na3VO4, 1 μg/ml leupeptin, 50 nmol/L APMSF) was added thereto to lyse cells. (5) The amount of AKT phosphorylation in the cell lysate was measured by ELISA method. (6) Anti-phospho-Akt (Ser473) antibodies (clone 193H12, derived from a rabbit) were immobilized onto the solid phase of a micro well plate. 100 μL of the prepared cell lysate was added to the micro well plate, incubated for 2 hours at 37° C., and then washed four times with Phosphate Buffered Saline containing 0.05% Tween-20. (7) An anti-AKT1 antibody (clone 2H10, derived from a mouse) was added thereto, incubated for 1 hour at 37° C., washed similarly, and then reacted with an HRP-labeled anti-mouse IgG antibody. (8) After incubating at 37° C. for 30 minutes and then washing similarly, 100 μL of TMB (3,3′,5,5″-tetramethylbenzidine) was added thereto, followed by reacting at room temperature for 30 minutes. (9) 100 μL of 1 mol/L sulfuric acid was added to quench the color reaction and then the absorbance at 450 nm was measured. (10) A series of diluted cell lysates of a positive control (a sample in the absence of a compound) were used to prepare a calibration curve, the amount of AKT phosphorylation in a sample in the absence of MCP-1 was defined as 0% activity to calculate an inhibition ratio. The measurement was performed for a 1 μmol/L solution of each compound.

Metabolic stability test = type: in vitro ADME; conditions: human liver microsome 0.5 mg protein/mL, 1 mmol/L NADPH, 37° C.
Procedure: After a subject compound was reacted for a certain time using a pooled human liver microsome commercially available, a reacted sample and an unreacted sample are compared to calculate a survival ratio, and then the degree of metabolism in the liver was evaluated.
0.2 mL of a buffer solution (50 mmol/L of Tris-HCl in pH 7.4, 150 mmol/L of potassium chloride, and 10 mmol/L of magnesium chloride) containing a human liver microsome of 0.5 mg protein/mL was reacted in the presence of 1 mmol/L NADPH at 37° C. for 0 or 30 minutes (oxidative reaction). After reacting, 50 μL of the reaction solution was added to 100 μL of a solution of methanol/acetonitrile (1/1 (v/v)), mixed, and then centrifuged at 3000 rpm for 15 minutes. The test compound in the supernatant was quantitated with LC/MS/MS. The amount of the compound at a reaction time of 0 minute was defined as 100% and, based on that, the percentage of the test compound remained after reacting for 30 minutes was calculated.

Solubility test = type: physicochemical; conditions: kinetic from dmso stock; artificial intestinal juice pH 6.8, 1% DMSO, 25° C. for 16 hours
Procedure: The solubility of a compound was determined under a condition in which 1% DMSO was added. 10 mmol/L compound solution was prepared using DMSO, and then 6 μL of the compound solution was added to 594 μL of artificial intestinal juice in pH 6.8 (to 250 mL of 0.2 mol/L potassium dihydrogen phosphate reagent solution was added 118 mL of 0.2 mol/L NaOH reagent solution and water to provide a final volume of 1000 mL). After standing at 25° C. for 16 hours, the mixed solution was filtered with suction. The filtrate was diluted twice with methanol/water (1/1), and then a concentration in the filtration was measured with HPLC or LC/MS/MS by the absolute calibration method.

PI-3 kinase γ [3] = molecular target: T1, PI-3 kinase γ; assay: PI3Kγ inhibitory activity (Ki value), HTRF; type: biochemical; conditions: Ki=IC50/(1+10 μM ATP/Km)
Procedure: The PI3Kγ inhibitory activity (Ki value) of a compound was evaluated according to the following procedure:
5 μL of a compound solution containing 10% DMSO and 200 μmol/L of a compound was changed to 5 μL of a compound solution containing 10% DMSO and either 200, 64, 20, 6.4, 2, 0.64, or 0.20 μmol/L of the compound (optionally, this is diluted to a lower concentration). Using a method similar to the method for measuring PI3Kγ inhibitory activity, inhibition ratios were measured in the presence of the compound at 50, 16, 5, 1.6, 0.5, 0.16, and 0.05 μmol/L (optionally, a lower concentration). Then an IC50 value was calculated by a logistic approximation method or the linear regression method using two concentrations that across 50% inhibition. Separately, the ATP concentration in the reaction solution (40 μmol/L ATP, 10 mmol/L MgCl2, 5 mmol/L DTT) at the time of the start of a reaction in the absence of the compound was changed to 80, 40, 20, 10, 5, 2.5, 1.25, or 0.625 μmol/L. Then, HTRF ratios were measured by a similar method. The value obtained by subtracting the HTRF ratio at each ATP concentration from the HTRF ratio in the absence of PI-3 kinase γ was defined as the value obtained by multiplying reaction rate (v) at each ATP concentration with a constant. The Michaelis-Menten constant Km was then calculated by the Lineweaver-Burk plot method. The Ki value of a compound was calculated by the following formula.
Ki=IC50 value/(1+10 μM (test ATP concentration)/Km (μM))

[4] = molecular target: T2, human ether-a-go-go related gene (hERG) channel (Homo sapiens, UniProt Q12809); assay: hERG test, whole-cell patch-clamp; type: cell-based; conditions: HEK293 cell expressing hERG; applied for 10 minutes; concentration not given
T2 construct: expressed in transfected cells; host or cells: HEK293
T2 sequence (Q12809 whole entry): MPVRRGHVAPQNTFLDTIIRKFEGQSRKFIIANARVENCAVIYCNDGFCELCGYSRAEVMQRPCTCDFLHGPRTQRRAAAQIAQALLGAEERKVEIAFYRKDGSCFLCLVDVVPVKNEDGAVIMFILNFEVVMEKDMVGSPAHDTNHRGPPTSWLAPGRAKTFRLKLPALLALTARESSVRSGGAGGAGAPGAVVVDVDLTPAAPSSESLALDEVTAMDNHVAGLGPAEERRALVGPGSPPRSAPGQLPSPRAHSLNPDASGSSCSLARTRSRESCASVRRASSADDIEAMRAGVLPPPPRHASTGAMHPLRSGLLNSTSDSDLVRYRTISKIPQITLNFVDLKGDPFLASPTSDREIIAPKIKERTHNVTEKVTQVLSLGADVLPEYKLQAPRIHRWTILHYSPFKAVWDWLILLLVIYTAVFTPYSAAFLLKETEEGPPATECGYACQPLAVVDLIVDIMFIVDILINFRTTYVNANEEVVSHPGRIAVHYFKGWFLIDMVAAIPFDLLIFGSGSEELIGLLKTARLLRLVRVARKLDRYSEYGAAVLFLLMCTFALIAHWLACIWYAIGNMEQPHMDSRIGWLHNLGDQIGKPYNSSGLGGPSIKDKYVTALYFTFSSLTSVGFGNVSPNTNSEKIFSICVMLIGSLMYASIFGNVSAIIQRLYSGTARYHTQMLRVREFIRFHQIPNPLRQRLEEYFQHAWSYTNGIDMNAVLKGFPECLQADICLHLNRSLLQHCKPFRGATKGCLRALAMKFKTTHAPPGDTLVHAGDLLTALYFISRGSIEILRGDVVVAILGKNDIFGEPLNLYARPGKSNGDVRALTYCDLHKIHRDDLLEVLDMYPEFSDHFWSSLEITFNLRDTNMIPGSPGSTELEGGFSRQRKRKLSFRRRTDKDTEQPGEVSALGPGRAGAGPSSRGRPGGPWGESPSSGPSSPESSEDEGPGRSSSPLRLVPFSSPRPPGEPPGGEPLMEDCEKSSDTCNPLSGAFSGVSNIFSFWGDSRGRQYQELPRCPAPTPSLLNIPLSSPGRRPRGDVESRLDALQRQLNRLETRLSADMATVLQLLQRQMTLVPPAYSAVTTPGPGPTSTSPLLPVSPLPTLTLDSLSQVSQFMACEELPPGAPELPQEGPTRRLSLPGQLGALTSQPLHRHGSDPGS
Source text: For the purpose of risk evaluation of QT interval extension of electrocardiogram, the activity on delayed rectification K^+ current (IKr), which plays an important role in a cardiac ventricle repolarization process, was examined using the HEK293 cell that was made to express human ether-a-go-go related gene (hERG) channel.
Using an automatic patch-clamp system (PatchXpress 7000A, Axon Instruments Inc.), by a whole-cell patch-clamp method, after the cell was maintained at a membrane potential of −80 mV, IKr induced upon applying depolarizing stimulation of +50 mV for 2 seconds and further applying repolarizing stimulation of −50 mV for 2 seconds was recorded. After generated electric current became stable, a test substance dissolved at an intended concentration in extracellular fluid (137 mmol/L NaCl, 4 mmol/L KCl, 1.8 mmol/L CaCl2.2H2O, 1 mmol/L MgCl2.6H2O, 10 mmol/L glucose, 10 mmol/L HEPES (4-(2-hydroxyethyl)-1-piperazineethanesulfonic acid), pH=7.4) was applied to the cell for 10 minutes under room temperature condition. From the obtained IKr, the absolute value of the maximum tail current was measured using analysis software (DataXpress ver. 1, Molecular Devices Corporation) and the value of the electric current in a maintained membrane potential as baseline. Moreover, an inhibition ratio for the maximum tail current prior to the application of the test substance was calculated and then compared with a group of media-application (0.1% dimethylsulfoxide solution) to evaluate influence of the test substance on IKr.
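For percentage of the test compound remained after reacting for 30 minutes in this document: 100% equals the compound amount at 0 min reaction.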

T1 sequence (P48736 whole entry): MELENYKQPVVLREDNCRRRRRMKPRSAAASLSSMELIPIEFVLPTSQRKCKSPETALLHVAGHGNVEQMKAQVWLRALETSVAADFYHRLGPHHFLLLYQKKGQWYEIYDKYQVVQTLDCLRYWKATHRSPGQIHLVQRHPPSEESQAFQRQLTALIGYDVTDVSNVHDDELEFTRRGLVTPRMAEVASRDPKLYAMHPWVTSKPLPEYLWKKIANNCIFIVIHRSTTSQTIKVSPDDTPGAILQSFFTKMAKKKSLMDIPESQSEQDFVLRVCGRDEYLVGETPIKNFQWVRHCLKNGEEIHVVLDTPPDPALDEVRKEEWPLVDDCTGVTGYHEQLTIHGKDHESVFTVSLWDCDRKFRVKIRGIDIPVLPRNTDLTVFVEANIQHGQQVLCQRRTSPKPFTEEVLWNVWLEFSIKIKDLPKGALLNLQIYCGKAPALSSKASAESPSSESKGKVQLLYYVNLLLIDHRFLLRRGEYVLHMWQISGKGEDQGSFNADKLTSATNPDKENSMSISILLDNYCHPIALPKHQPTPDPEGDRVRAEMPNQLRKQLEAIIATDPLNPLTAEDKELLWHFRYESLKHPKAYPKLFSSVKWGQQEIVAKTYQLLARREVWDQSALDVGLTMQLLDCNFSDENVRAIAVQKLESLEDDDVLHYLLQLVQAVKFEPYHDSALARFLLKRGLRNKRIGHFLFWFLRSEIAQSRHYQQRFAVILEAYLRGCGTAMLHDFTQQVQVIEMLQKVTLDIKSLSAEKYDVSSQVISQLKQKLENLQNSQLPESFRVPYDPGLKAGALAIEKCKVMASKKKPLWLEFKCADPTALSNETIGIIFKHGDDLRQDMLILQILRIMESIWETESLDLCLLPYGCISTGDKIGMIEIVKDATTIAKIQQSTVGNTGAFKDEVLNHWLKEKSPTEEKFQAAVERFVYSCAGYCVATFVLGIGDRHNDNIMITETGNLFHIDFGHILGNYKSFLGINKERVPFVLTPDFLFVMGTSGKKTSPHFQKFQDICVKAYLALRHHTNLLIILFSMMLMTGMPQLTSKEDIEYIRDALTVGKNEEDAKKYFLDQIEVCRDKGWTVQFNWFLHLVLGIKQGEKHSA

Compound | inhibition at 10 µM (PI-3 kinase γ [1]; compound at 10 μmol/L) | percentage of the test compound remained after reacting for 30 minutes (Metabolic stability test) | solubility at 16 h (Solubility test) | Ki (PI-3 kinase γ [3]) | inhibition at 10 µM (PI-3 kinase γ [1]; PI3Kγ, compound at 10 μM) | inhibition at 50 µM (PI-3 kinase γ [1]; PI3Kγ) | inhibition [2] | inhibition ratio for the maximum tail current (IKr) [4]
CN1CCc2cc(N3CCn4nc(NC(=O)c5cnco5)cc43)ccc2C1=O [Compound I-348] | ≥ 95% | 94.5% | > 50 µM |  |  |  | > 99.5% | 
CN1CCc2cc(N3CCn4nc(NC(=O)c5cnc(NC(=O)OC(C)(C)C)s5)cc43)ccc2C1=O [Compound I-375] | ≥ 95% |  |  | 23 nM |  |  |  | 
COc1cc(N2CCc3nc(NC(=O)NCCC(=O)N4CCCC4(C)C)sc3C2)nc(OC)n1 [Compound I-318] | ≥ 95% |  | > 50 µM | 45 nM |  |  | > 99.5% | 
COc1cc(N2CCc3nc(NC(=O)NCCC(=O)NC(C)C)sc3C2)nc(OC)n1 [Compound I-309] | ≥ 95% | 93.1% | > 50 µM |  |  |  | 92% | 
COc1cc(N2CCc3nc(NC(C)=O)sc3C2)nc(OC)n1 [Compound I-214] |  | 98.9% |  |  |  | ≥ 95% | > 99.5% | 
CN1CCc2cc(N3CCn4nc(NC(=O)c5ccc(C(=O)NCC(=O)O)s5)cc43)ccc2C1=O [Compound I-415] | ≥ 95% |  |  | 34 nM |  |  |  | 
COc1cc(N2CCc3nc(NC(=O)NCCC(=O)N(C)C(C)C)sc3C2)nc(OC)n1 [Compound I-310] | ≥ 95% |  |  | 43 nM |  |  | > 99.5% | 
CC(=O)Nc1cc2n(n1)CCN2c1ccc2cnccc2c1 [Compound I-284] |  |  |  | 40 nM | ≥ 95% |  | > 99.5% | 
CN1CCc2cc(N3CCn4nc(NC(=O)c5cncs5)cc43)ccc2C1=O [Compound I-341] | ≥ 95% |  | > 50 µM |  |  |  | 97.8% | 
CN1CCc2cc(N3CCn4nc(NC(=O)c5cnc(N)s5)cc43)ccc2C1=O [Compound I-380] | ≥ 95% |  |  | 32 nM |  |  |  | 
CCOC(=O)CNC(=O)Nc1nc2c(s1)CN(c1cc(OC)nc(OC)n1)CC2 [Compound I-202] |  |  |  | 49 nM |  | ≥ 95% | > 99.5% | 
COc1cc(N2CCc3nc(NC(=O)NCCC(=O)N4CCCC4)sc3C2)nc(OC)n1 [Compound I-308] | ≥ 95% | 92.2% |  |  |  |  | 98.4% | 
CNC(=O)Nc1cc2n(n1)CCN2c1ccc(C(N)=O)cc1 [Compound I-160] |  |  |  |  |  | ≥ 95% |  | −0.4%
COC(=O)Nc1cc[nH]c1C(=O)Nc1cc2n(n1)CCN2c1ccc2c(c1)CCN(C)C2=O [Compound I-398] | ≥ 95% |  |  | 49 nM |  |  |  | 
CN1CCc2cc(N3CCn4nc(NC(=O)c5ccsc5)cc43)ccc2C1=O [Compound I-332] | ≥ 95% | 87.2% |  |  |  |  | 96% | 

Second part, led by results:

inhibition at 10 µM (PI-3 kinase γ [1]; compound at 10 μmol/L) | percentage of the test compound remained after reacting for 30 minutes (Metabolic stability test) | solubility at 16 h (Solubility test) | Ki (PI-3 kinase γ [3]) | inhibition at 10 µM (PI-3 kinase γ [1]; PI3Kγ, compound at 10 μM) | inhibition at 50 µM (PI-3 kinase γ [1]; PI3Kγ) | Compound | inhibition [2] | inhibition ratio for the maximum tail current (IKr) [4]
 |  |  | 36 nM | ≥ 95% |  | COC(=O)[C@H](CC(=O)OC(C)(C)C)NC(=O)Nc1nc2c(s1)CN(c1cc(OC)nc(OC)n1)CC2 [Compound I-277] |  | 
 | 90.5% |  |  |  | ≥ 95% | CNC(=O)Nc1cc2n(n1)CCN2c1ccc2cnccc2c1 [Compound I-190] | > 99.5% | 
 |  |  | 42 nM | ≥ 95% |  | COc1cc(N2CCc3nc(NC(=O)NCCC(=O)NC(C)(C)C)sc3C2)nc(OC)n1 [Compound I-265] | > 99.5% | 
94% | 87.3% |  | 45 nM |  |  | COc1cc(N2CCc3nc(NC(=O)Nc4ccon4)sc3C2)nc(OC)n1 [Compound I-303] |  | 
 |  | > 50 µM |  |  | 94% | CC(=O)Nc1cc2n(n1)CCN2c1cccc(Cl)c1 [Compound I-198] | 97.3% | 
 | 94.9% | > 50 µM |  | ≥ 95% |  | CC(=O)Nc1cc2n(n1)CCN2c1ccc2c(c1)CCN(C)C2=O [Compound I-287] | > 99.5% | 
≥ 95% |  |  | 43 nM |  |  | CC(=O)Nc1cc2n(n1)CCN2c1ccc2c(c1)CCNC2=O [Compound I-292] |  | 
 |  | > 50 µM |  |  | ≥ 95% | CNC(=O)Nc1cc2n(n1)CCN2c1ccc2ncccc2c1 [Compound I-177] | > 99.5% | 
